From patent US20040166058A1, “Ethylenedicysteine (EC)-drug conjugates, compositions and methods for tissue specific disease imaging” (Board of Regents, The University of Texas System, priority 2002, published 2004) come the findings set out here.

Ends that are not written are not given here.

Data set [1] deals with RBA CRL-1747 (breast cancer cells). As to the kind of experiment: In vitro cellular uptake in breast cancer cells. It is filed as cell-based. The note with it: 0.5-2 hrs, 50,000 cells/well. The text has this:
There was more uptake in ^99mTc-EC-carnitine than ^99mTc-EC (FIG. 16).

Data set [2] relates to RBA CRL-1747 mammary tumor. The data set is described as follows: Biodistribution in mammary (breast) tumor-bearing rats. Type of data set: in vivo. The following applies: iv. The method, then:
Biodistribution was assessed in mammary tumor-bearing rats (RBA CRL-1747, n=3/time interval, iv). Studies were performed 14 to 17 days after implantation when tumors reached approximately 1 cm in diameter. Following administration of the radiotracer, rats were sacrificed at 0.5-4 hrs. The selected tissues were excised, weighed and counted for radioactivity by using a gamma counter (Packard Instruments, Downers Grove, Ill.). The biodistribution of tracer in each sample was calculated as percentage of the injected dose per gram of tissue wet weight (% ID/g).
Biodistribution was assessed in breast tumor-bearing rats (RBA CRL-1747, n=3/time interval, iv). Studies were performed 14 to 17 days after implantation when tumors reached approximately 1 cm in diameter. Following administration of the radiotracer, rats were sacrificed at 0.5-4 hrs. The selected tissues were excised, weighed and counted for radioactivity by using a gamma counter (Packard Instruments, Downers Grove, Ill.). The biodistribution of tracer in each sample was calculated as percentage of the injected dose per gram of tissue wet weight (% ID/g).

For data set [3], the system named is human prostate cancer cells (LNCap, PC-3). As to the kind of experiment: In vitro cellular uptake in human prostate cancer cells. Type of data set: cell-based. The following applies: 4-6 μCi/100,000 cells/well, 0.5-2 hrs, LNCap and PC-3. The method, then:
An in vitro cell culture using tumor cells was incubated with ^99mTc-EC-LHRH (4-6 μCi/100,000 cells/well) at 0.5-2 hrs in human prostate cancer cells. Two types cell lines were used. They are either sensitive to androgen (LNCap) or unresponsive to androgen (PC-3) therapy.

Data set [4] can be described thus: Cell culture uptake of Re-188 versus Tc-99m labeled EC-agents. It is filed as cell-based. The method, then: To develop EC-DG in a kit form, EC-DG (10 mg) dissolved in 0.2 ml of water was freeze dried with tin chloride (2 mg in 0.2 ml of water) and gluconate (3 mg) in a 10 ml medi-vial and stored at room temperature prior to labeling. During labeling, the freeze dried powder was reconstituted in saline (0.5 ml) and pertechnate (10 mCi) was added. The kit was heated at 55° C. for 30 min (or 75° C. for 15 min). Radiochemical purity of ^99mTc-EC-DG was greater than 95% as determined by radio-TLC (saline, Rf: 0.8)(FIG. 39). A similar method could be applied to other EC-agents such as EC-metronidazole (EC-MN)(FIG. 40) and EC-penciclovir (also known as EC-Guan).

The subject of data set [5] is RBA CRL-1747 breast cancer cells. As to the kind of experiment: In vitro blocking study of ^99mTc-EC-angiostatin uptake with unlabeled angiostatin. Type of data set: cell-based. The note with it: unlabeled angiostatin 0-200 μM, 0.5-2 hrs, R^2=0.998; read-out: IC-50 of angiostatin (inhibition of ^99mTc-EC-angiostatin uptake). The protocol: The IC-50 of angiostatin was 176 μM (R^2=0.998) (FIG. 3).

Data set [6] concerns mammary tumor. As to the kind of experiment: Scintigraphic imaging in mammary (breast) tumor-bearing rats. It is filed as in vivo. The note with it: 0.1-4 hrs, 0.1 mCi/rat, iv.
Description: Scintigraphic imaging studies was performed in mammary tumor-bearing rats at 0.5-4 hrs (0.3 mCi/rat, n=3, iv). Control group was administered ^99mTc-EC. Computer-outlined region of interest was used to determine tumor uptake (counts/pixel) and tumor/nontumor count density ratios.
Scintigraphic imaging studies was performed in mammary tumor-bearing rats at 0.5-4 hrs (0.3 mCi/rat, n=3, iv). Control group was administered ^99mTc-EC.
Scintigraphic imaging studies was performed in mammary tumor-bearing rats at 0.5-4 hrs (0.1 mCi/rat, n=3, iv). Control group was administered ^99mTc-EC.
Scintigraphic imaging studies was performed in breast tumor-bearing rats at 0.5-4 hrs (0.1 mCi/rat, n=3, iv). Control group was administered ^99mTc-EC.
Scintigraphic imaging studies was performed in breast tumor-bearing rats at 0.1-4 hrs (0.1 mCi/rat, n=3, iv). Control group was administered ^99mTc-EC.
Data set [7] concerns human ovarian and uterine cancer cells. The data set is described as follows: In vitro cellular uptake in human ovarian and uterine cancer cells. The following applies: 4-6 μCi/50,000 cells/well, 0.5-2 hrs. Type of data set: cell-based.
Description: An in vitro cell culture using tumor cells was incubated with ^99mTc-EC-penciclovir (4-6 μCi/50,000 cells/well) at 0.5-2 hrs in human ovarian and uterine cancer cells.
Data set [8] deals with human ovarian cancer cells. The note with it: 4-6 μCi/50,000 cells/well, 0.5-2 hrs.

As for `Cc1ccc(-c2cc(C(F)(F)F)nn2-c2ccc(S(=O)(=O)NC(=O)NCC(=O)NCCNC(=O)C3C[S][99Tc]45(=[O])[S]CC(C(=O)O)[N]4CC[N]35)cc2)cc1` (stereo not drawn) [^99mTc-EC-COX-2], the “cellular uptake compared to ^99mTc-EC” value in data set [1] was “significant increase in uptake”. Moreover, the “tumor-to-tissue count density ratios compared to ^99mTc-EC” value in data set [2] (0.5-4 hrs) is on record as “increased tumor-to-tissue count density ratios as a function of time”. Moreover, in data set [2] (30 min), the BONE/MUSCLE is listed as 2.419 ± 0.225, the “Biodistribution BONE & JOINT” value was 0.324 ± 0.036 % of injected dose per gram of tissue weight, the “Biodistribution Blood” value is listed as 2.293 ± 0.038 % of injected dose per gram of tissue weight and the “Biodistribution Heart” value was 0.475 ± 0.025 % of injected dose per gram of tissue weight. In data set [2] (30 min), the “Biodistribution Intestine” value is recorded as 0.406 ± 0.039 % of injected dose per gram of tissue weight, the “Biodistribution Kidney” value is 4.963 ± 0.147 % of injected dose per gram of tissue weight, the “Biodistribution Liver” value is recorded as 1.556 ± 0.046 % of injected dose per gram of tissue weight and the “Biodistribution Lung” value was 1.033 ± 0.035 % of injected dose per gram of tissue weight. Also, in data set [2] (30 min), the “Biodistribution Muscle” value is reported as 0.133 ± 0.007 % of injected dose per gram of tissue weight, the “Biodistribution Spleen” value is reported as 0.594 ± 0.298 % of injected dose per gram of tissue weight, the “Biodistribution Stomach” value is 0.370 ± 0.010 % of injected dose per gram of tissue weight and the “Biodistribution Thyroid” value was 0.784 ± 0.090 % of injected dose per gram of tissue weight. In data set [2] (30 min), the “Biodistribution Tumor” value was 0.587 ± 0.062 % of injected dose per gram of tissue weight, the “Biodistribution UTERUS” value was 0.595 ± 0.003 % of injected dose per gram of tissue weight, the Tumor/Blood is reported as 0.255 ± 0.022 and the Tumor/Muscle came to 4.375 ± 0.304. Also, in data set [2] (30 min), the UTERUS/BLOOD worked out at 0.259 ± 0.003 and the UTERUS/MUSCLE was determined as 4.471 ± 0.257. Moreover, in data set [2] (2 h), the BONE/MUSCLE was determined as 3.058 ± 0.114, the “Biodistribution BONE & JOINT” value is 0.190 ± 0.003 % of injected dose per gram of tissue weight, the “Biodistribution Blood” value was 1.388 ± 0.063 % of injected dose per gram of tissue weight and the “Biodistribution Heart” value is recorded as 0.283 ± 0.017 % of injected dose per gram of tissue weight. Further, in data set [2] (2 h), the “Biodistribution Intestine” value is given as 0.276 ± 0.061 % of injected dose per gram of tissue weight, the “Biodistribution Kidney” value is reported as 6.088 ± 0.305 % of injected dose per gram of tissue weight, the “Biodistribution Liver” value was 1.461 ± 0.049 % of injected dose per gram of tissue weight and the “Biodistribution Lung” value was 0.712 ± 0.098 % of injected dose per gram of tissue weight. Also, in data set [2] (2 h), the “Biodistribution Muscle” value is 0.062 ± 0.003 % of injected dose per gram of tissue weight, the “Biodistribution Spleen” value is given as 0.965 ± 0.056 % of injected dose per gram of tissue weight, the “Biodistribution Stomach” value is 0.187 ± 0.004 % of injected dose per gram of tissue weight and the “Biodistribution Thyroid” value was 0.449 ± 0.015 % of injected dose per gram of tissue weight. For the same molecule, in data set [2] (2 h), the “Biodistribution Tumor” value is 0.424 ± 0.019 % of injected dose per gram of tissue weight, the “Biodistribution UTERUS” value is reported as 0.334 ± 0.034 % of injected dose per gram of tissue weight, the Tumor/Blood came out at 0.307 ± 0.018 and the Tumor/Muscle came to 6.876 ± 0.704. Further, in data set [2] (2 h), the UTERUS/BLOOD was 0.240 ± 0.021 and the UTERUS/MUSCLE was 5.442 ± 0.852. Also, in data set [2] (4 h), the BONE/MUSCLE is 4.314 ± 0.739, the “Biodistribution BONE & JOINT” value is reported as 0.178 ± 0.022 % of injected dose per gram of tissue weight, the “Biodistribution Blood” value is on record as 1.031 ± 0.033 % of injected dose per gram of tissue weight and the “Biodistribution Heart” value is 0.224 ± 0.004 % of injected dose per gram of tissue weight. Moreover, in data set [2] (4 h), the “Biodistribution Intestine” value is listed as 0.190 ± 0.006 % of injected dose per gram of tissue weight, the “Biodistribution Kidney” value was 6.363 ± 0.260 % of injected dose per gram of tissue weight, the “Biodistribution Liver” value is 1.506 ± 0.080 % of injected dose per gram of tissue weight and the “Biodistribution Lung” value is recorded as 0.500 ± 0.011 % of injected dose per gram of tissue weight. Besides, in data set [2] (4 h), the “Biodistribution Muscle” value is reported as 0.002 ± 0.004 % of injected dose per gram of tissue weight, the “Biodistribution Spleen” value is reported as 0.981 ± 0.041 % of injected dose per gram of tissue weight, the “Biodistribution Stomach” value is recorded as 0.139 ± 0.004 % of injected dose per gram of tissue weight and the “Biodistribution Thyroid” value was 0.372 ± 0.021 % of injected dose per gram of tissue weight. In data set [2] (4 h), the “Biodistribution Tumor” value is given as 0.406 ± 0.004 % of injected dose per gram of tissue weight, the “Biodistribution UTERUS” value is listed as 0.263 ± 0.005 % of injected dose per gram of tissue weight, the Tumor/Blood is recorded as 0.395 ± 0.014 and the Tumor/Muscle was 9.715 ± 0.387. In data set [2] (4 h), this molecule showed a UTERUS/BLOOD of 0.255 ± 0.005 and a UTERUS/MUSCLE of 6.278 ± 0.199.
“^99mTc-EC-LHRH (QHWSYGLRPG; also: 99mTc-ethylenedicysteine (EC) label, attachment site not given here; UniProt P01148 24-33, looked up)”: the “cellular uptake compared to ^99mTc-EC” value in data set [3] was “significant increased uptake”.
Turning to `Nc1nc2c(ncn2CCC(CO)CNC(=O)[C@H](CS)NCCN[C@@H](CS)C(=O)NCC(CO)CCn2cnc3c(=O)[nH]c(N)nc32)c(=O)[nH]1` (stereo partly drawn) [EC-Guan], in data set [4], the “uptakes of Re-188 versus Tc-99m labeled agent” value is reported as “no marked difference between uptakes”.
For angiostatin, the IC50 in data set [5] was found to be 176 µM.
For the molecule `C[N+](C)(C)CCCCC(NC(=O)C1C[S][99Tc]23(=[O])[S]CC(C(=O)NC(CCCC[N+](C)(C)C)C(=O)[O-])[N]2CC[N]13)C(=O)[O-]` (stereo not drawn) [^99mTc-EC-carnitine], the “cellular uptake compared to ^99mTc-EC” value in data set [1] was “more uptake”. In data set [6], the “count density ratios tumor/muscle and heart/muscle” value is listed as “High count density ratios”.
Take `Nc1nc2c(ncn2CCC(CO)CNC(=O)C2C[S][99Tc]34(=[O])[S]CC(C(=O)NCC(CO)CCn5cnc6c(=O)[nH]c(N)nc65)[N]3CC[N]24)c(=O)[nH]1` (stereo not drawn) [^99mTc-EC-penciclovir]: the “cellular uptake compared to ^99mTc-EC” value in data set [7] was “significant increased uptake”.
As for `CN(C)c1ncnc2c1ncn2C1OC(CO)C(NC(=O)C2C[S][99Tc]34(=[O])[S]CC(C(=O)O)[N]3CC[N]24)C1O` (stereo not drawn) [^99mTc-EC-adenosine], the “cellular uptake compared to ^99mTc-EC” value in data set [8] is on record as “significant increased uptake”.
